The results in this text go back to patent US20250186433A1, “ACSS2 INHIBITORS AND METHODS OF USE THEREOF” (EpiVario, Inc., priority 2017, published 2025).

The target in one series is T1, ACSF2 (Homo sapiens, UniProt Q96CM8).
T1 construct: purchased Cusabio, China
T1 sequence (Q96CM8 42-615): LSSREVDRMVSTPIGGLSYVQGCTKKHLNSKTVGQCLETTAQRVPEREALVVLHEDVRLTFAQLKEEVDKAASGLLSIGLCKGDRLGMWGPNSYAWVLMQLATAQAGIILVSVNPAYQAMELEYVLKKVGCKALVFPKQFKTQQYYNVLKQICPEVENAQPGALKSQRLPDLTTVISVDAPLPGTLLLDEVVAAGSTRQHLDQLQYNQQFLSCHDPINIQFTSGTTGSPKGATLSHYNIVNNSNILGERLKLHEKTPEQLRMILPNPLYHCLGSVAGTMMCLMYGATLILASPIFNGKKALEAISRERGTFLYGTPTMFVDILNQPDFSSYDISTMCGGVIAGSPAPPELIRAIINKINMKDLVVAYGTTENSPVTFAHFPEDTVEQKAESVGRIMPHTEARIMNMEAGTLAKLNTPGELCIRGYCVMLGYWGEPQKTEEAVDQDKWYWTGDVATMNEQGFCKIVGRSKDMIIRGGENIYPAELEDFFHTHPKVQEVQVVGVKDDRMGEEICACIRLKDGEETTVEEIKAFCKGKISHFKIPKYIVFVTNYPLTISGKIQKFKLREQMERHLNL
As to the kind of experiment: Acyl-CoA synthetases selectivity panel: ACSF2. It counts as biochemical. The settings on record: human recombinant protein, substrate octanoate, AMP readout by HPLC; read-out: HPLC based activity assays IC50 (UM) ACSF2. An excerpt: (§1) The biochemical assays for testing the selectivity of the compounds according to this invention, were done using human recombinant proteins (Cusabio, China). The readout of the assays was AMP levels, the […] of the reactions, by HPLC method. The acyl substrates (Sigma-Aldrich) of the assays were as followed: ACSS1/ACSS2—Acetate, AACS-Acetoacetyl, ACSF2—Octanoate and ACSL5—Palmitate. The protein in this panel include ACSS1, the closest homolog of ACSS2, in addition to representative short/medium/long chain acyl-CoA syntatases.

Another series has as its system HCT116. Put plainly: In-vivo model that does not utilize acetate (HCT116). The settings on record: daily oral dosing.
The nature of series [1]: Pharmacokinetic profile in mice (oral and iv). It counts as in vivo. The settings on record: mouse, plasma.
The target in a further series is T2, AACS (Homo sapiens, UniProt Q86V21).
T2 construct: purchased Cusabio, China
T2 sequence (Q86V21 1-672): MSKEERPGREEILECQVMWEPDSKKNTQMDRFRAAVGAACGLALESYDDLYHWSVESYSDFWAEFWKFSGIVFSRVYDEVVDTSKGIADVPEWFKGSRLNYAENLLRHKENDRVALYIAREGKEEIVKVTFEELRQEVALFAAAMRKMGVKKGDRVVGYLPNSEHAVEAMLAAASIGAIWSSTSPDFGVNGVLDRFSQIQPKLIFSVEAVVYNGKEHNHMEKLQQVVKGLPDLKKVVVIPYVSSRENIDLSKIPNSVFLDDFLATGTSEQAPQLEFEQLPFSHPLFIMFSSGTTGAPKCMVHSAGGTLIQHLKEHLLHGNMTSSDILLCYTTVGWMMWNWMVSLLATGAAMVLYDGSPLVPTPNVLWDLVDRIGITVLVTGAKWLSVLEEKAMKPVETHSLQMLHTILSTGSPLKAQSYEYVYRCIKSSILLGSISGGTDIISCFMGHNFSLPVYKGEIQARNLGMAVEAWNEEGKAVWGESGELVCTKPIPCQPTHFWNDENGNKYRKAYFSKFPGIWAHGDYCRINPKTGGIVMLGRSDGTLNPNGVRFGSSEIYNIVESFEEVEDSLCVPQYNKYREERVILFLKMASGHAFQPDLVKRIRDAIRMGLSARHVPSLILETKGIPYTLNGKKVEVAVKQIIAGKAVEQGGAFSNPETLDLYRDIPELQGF
Put plainly: Acyl-CoA synthetases selectivity panel: AACS. Format: biochemical. The settings on record: human recombinant protein, substrate acetoacetyl, AMP readout by HPLC; read-out: HPLC based activity assays IC50 (UM) AACS.
Source text: as §1

The next series concerns the target T3, ACSL5 (Homo sapiens, UniProt Q9ULC5).
T3 construct: purchased Cusabio, China
T3 sequence (Q9ULC5 1-683): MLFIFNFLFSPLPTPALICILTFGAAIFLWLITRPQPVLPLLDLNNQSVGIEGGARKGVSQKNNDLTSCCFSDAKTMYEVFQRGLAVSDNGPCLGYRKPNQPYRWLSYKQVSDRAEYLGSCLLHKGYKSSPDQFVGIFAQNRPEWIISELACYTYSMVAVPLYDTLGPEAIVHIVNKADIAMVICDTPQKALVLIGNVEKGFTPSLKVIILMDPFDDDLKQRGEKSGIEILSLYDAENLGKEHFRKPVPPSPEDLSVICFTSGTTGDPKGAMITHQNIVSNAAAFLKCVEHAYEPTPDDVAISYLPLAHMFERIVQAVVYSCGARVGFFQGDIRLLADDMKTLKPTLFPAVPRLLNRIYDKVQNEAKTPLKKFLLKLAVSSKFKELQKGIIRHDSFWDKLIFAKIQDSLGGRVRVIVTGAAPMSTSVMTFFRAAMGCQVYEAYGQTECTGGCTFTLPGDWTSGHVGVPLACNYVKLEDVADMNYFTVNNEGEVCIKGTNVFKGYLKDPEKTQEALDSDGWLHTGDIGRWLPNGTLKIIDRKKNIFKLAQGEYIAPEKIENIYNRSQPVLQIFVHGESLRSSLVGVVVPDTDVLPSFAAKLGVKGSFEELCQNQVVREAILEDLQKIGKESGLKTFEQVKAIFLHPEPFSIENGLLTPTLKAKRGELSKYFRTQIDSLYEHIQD
Put plainly: Acyl-CoA synthetases selectivity panel: ACSL5. It counts as biochemical. The settings on record: human recombinant protein, substrate palmitate, AMP readout by HPLC; read-out: HPLC based activity assays IC50 (UM) ACSL5.
Source text: as §1

The target in series [2] is T4, ACSS2 (Homo sapiens, UniProt Q9NR19). Put plainly: biochemical.
Experimental: The assay is based on a coupling reaction with Pyrophosphatase: ACSS2 is converting ATP+CoA+Acetate=>AMP+pyrophosphate+Acetyl-CoA (Ac-CoA). Pyrophosphatase converts pyrophosphate, a product of the ACSS2 reaction, to phosphate which can be detected by measuring the absorbance at 620 nm after incubation with the Biomol green reagent (Enzo life Science, BML-AK111).
At the end of the reaction, Biomol Green was added for 30 minutes at RT and the activity was measured by reading the absorbance at 620 nm.
The next series has as its target T5, ACSS1 (Homo sapiens, UniProt Q9NUB1).
T5 construct: purchased Cusabio, China
T5 sequence (Q9NUB1 38-689): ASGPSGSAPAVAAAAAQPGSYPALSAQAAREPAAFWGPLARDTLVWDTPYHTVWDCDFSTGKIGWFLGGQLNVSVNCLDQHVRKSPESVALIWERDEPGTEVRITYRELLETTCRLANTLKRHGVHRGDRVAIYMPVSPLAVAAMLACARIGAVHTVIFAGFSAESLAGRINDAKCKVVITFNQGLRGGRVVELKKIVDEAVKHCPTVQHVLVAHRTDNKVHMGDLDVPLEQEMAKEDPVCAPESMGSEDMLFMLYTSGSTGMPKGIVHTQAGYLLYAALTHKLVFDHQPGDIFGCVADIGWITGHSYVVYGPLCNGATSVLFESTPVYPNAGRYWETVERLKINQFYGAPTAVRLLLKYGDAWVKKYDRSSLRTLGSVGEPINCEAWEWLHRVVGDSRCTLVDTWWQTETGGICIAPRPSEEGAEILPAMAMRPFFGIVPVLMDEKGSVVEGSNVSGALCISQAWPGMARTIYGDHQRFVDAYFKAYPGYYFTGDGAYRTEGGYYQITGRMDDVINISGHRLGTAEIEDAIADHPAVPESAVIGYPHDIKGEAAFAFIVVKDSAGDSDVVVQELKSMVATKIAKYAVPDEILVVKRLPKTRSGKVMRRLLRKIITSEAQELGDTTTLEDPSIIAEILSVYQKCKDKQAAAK
Put plainly: Acyl-CoA synthetases selectivity panel: ACSS1. The settings on record: human recombinant protein, substrate acetate, AMP readout by HPLC; read-out: HPLC based activity assays IC50 (UM) ACSS1. It counts as biochemical.
Source text: as §1

In series [3] the target is T4, ACSS2. Put plainly: cell-based.
Experimental: Testing the inhibitory effect of compounds on the cellular activity of ACSS2 was done by tracing the incorporation of ^13C from ^13C-acetate into fatty-acids in MDA-MB-468 cells under hypoxic conditions of 1% O2. The assay was done for 5 hours in DMEM with 5.5 mM glucose, 1 mM sodium Pyruvate, 0.65 mM Glutamine, 3.5 ug/ml Biotin, 1% dialyzed serum, 0.5 mM 13 C-acetate and with different concentrations of the inhibitors. At the end of the incubation, the cells were washed with cold PBS, harvested into glass tubes and undergo saponification. The level of ^13C incorporation into Palmitate was done by LC-MS analysis and the level of inhibition was calculated with PRISM software.
In series [4] the target is T4, ACSS2. Put plainly: Acyl-CoA synthetases selectivity panel: ACSS2. It counts as biochemical. The settings on record: human recombinant protein, substrate acetate, AMP readout by HPLC; read-out: HPLC based activity assays IC50 (UM) ACSS2. Set-up: purchased Cusabio, China.
Source text: as §1

Series [5] relates to MDA-MB-468 breast cancer cells xenograft. Put plainly: In-vivo efficacy study in MDA-MB-468 breast cancer cells xenograft. The settings on record: 100 mg/kg orally once daily; female NMRI nude mice. How it is done: An in-vivo efficacy study was carried out by Charles-River Laboratories at the Freiburg, Germany site.
Tumor fragments from Breast cancer cell line MDA-MB-468 passaged as subcutaneous xenograft were subcutaneously implanted into female NMRI nude mice (Crl:NMRI-Foxnlnu). The animals were randomized into groups (n=10) when tumors volume reached 50 to 250 mm3. […] Body weights and tumor volume [mm3] by caliper were measured twice weekly.

“Also recorded” adds a separate entry of the source.

T4 sequence (Q9NR19 whole entry): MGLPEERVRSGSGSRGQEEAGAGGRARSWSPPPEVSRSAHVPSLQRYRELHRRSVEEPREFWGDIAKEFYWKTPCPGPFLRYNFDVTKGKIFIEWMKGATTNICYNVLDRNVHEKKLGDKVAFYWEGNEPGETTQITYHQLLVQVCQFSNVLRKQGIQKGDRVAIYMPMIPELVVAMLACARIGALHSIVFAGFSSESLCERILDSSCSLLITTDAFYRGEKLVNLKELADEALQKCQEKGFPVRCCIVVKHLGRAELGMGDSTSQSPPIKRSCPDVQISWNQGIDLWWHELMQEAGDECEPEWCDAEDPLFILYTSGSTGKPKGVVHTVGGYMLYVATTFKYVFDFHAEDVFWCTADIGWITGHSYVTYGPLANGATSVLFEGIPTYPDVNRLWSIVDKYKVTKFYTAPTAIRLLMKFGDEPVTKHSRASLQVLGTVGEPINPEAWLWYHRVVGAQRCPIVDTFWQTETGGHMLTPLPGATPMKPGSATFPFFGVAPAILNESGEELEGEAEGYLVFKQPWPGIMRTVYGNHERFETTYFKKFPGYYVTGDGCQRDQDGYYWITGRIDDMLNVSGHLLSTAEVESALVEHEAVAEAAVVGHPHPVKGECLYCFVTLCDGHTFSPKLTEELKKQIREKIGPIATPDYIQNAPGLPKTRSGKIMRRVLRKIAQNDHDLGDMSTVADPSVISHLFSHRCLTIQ

Consider `COc1ccc(N2N=C(C)C(C(=O)Nc3cccc(C(C)(F)F)c3)C2=O)cc1` (stereo not shown) [compound 265, N-(3-(1,1-difluoroethyl)phenyl)-1-(4-methoxyphenyl)-3-methyl-5-oxo-4,5-dihydro-1H-pyrazole-4-carboxamide], for which the concentration for half-maximal inhibition (IC50) is 152 µM at ACSF2; 171 µM on AACS; greater than 100 µM at ACSL5; 0.01 to 6 nM against ACSS2 [2]; 1 to 10 µM on ACSS1; 0.5 to 50 nM against ACSS2 [3]. In addition, the 50% inhibitory concentration (IC50) at ACSS2 [4] was less than 1 nM. Besides, the “efficacy in a model that does not utilize acetate (HCT116)” value in the series on HCT116 was “no efficacy”. In series [1] (oral 5 mg/kg, iv 1 mg/kg), this compound showed a bioavailability of 74%. In series [1] (oral 5 mg/kg, iv 1 mg/kg), this compound gave a clearance of 0.59 mL/min/kg. Besides, in series [1] (po, single 5 mg/kg dose, read-out: t½ (converted)), the half-life is 391 min. Also, in series [5], the “tumor growth in MDA-MB-468 xenograft model” value is “significant tumor growth delay; also recorded: inhibits tumor growth”.

`CC1=NN(c2ccc(OC(F)F)cc2)C(=O)C1C(=O)Nc1cccc(C(C)(F)F)c1` (stereo not shown) [compound 298, N-(3-(1,1-difluoroethyl)phenyl)-1-(4-(difluoromethoxy)phenyl)-3-methyl-5-oxo-4,5-dihydro-1H-pyrazole-4-carboxamide]: the “efficacy in a model that does not utilize acetate (HCT116)” value in the series on HCT116 is given as “no efficacy”. The “tumor growth in MDA-MB-468 xenograft model” value in series [5] is “significant tumor growth delay”.

As to `CC1=NN(c2ccc(OC(F)F)cc2)C(=O)C1C(=O)N[C@H]1CC[C@@H](O)[C@@H](O)C1` (stereo partly drawn) [compound 307, 1-(4-(difluoromethoxy)phenyl)-N-((1S,3S,4R)-3,4-dihydroxycyclohexyl)-3-methyl-5-oxo-4,5-dihydro-1H-pyrazole-4-carboxamide], the figures for the IC50 against ACSS2 [2] and at ACSS2 [3] were 0.01 to 6 nM and greater than 100 nM, respectively.
